Drawing on patent publication US11987588B2, “Modulators of the beta-3 adrenergic receptor useful for the treatment or prevention of heart failure and disorders related thereto” (Arena Pharmaceuticals, Inc., priority 2017, dated 2024), this text covers IC50 for 24 compounds.

Structures are written as SMILES.

This assay deals with Beta-3 Adrenergic Receptor (Homo sapiens (Human), UniProt P13945). The assay is described as follows: Homogeneous Time-Resolved Fluorescence (HTRF) cAMP antagonist assay, IC50 determination. The format is cell-based. The conditions noted are these: CHO-K1 cells stably expressing recombinant receptor, isoproterenol at EC90. How it is done: HTRF cAMP assays were performed according to manufacturer's instructions (Cisbio, cAMP Dynamic 2 Assay Kit; #62AM4PEJ). CHO-K1 cells stably expressing recombinant receptor were harvested and suspended in warm PBS to make a 300,000 cells/mL stock. This cell suspension was dispensed into 384 well assay plates (PerkinElmer ProxiPlate #6008280) at 5 μL per well (1500 cells/well) along with a cAMP standard curve.
Beta-3 Adrenergic Receptor, sequence (P13945 whole entry, species assumed): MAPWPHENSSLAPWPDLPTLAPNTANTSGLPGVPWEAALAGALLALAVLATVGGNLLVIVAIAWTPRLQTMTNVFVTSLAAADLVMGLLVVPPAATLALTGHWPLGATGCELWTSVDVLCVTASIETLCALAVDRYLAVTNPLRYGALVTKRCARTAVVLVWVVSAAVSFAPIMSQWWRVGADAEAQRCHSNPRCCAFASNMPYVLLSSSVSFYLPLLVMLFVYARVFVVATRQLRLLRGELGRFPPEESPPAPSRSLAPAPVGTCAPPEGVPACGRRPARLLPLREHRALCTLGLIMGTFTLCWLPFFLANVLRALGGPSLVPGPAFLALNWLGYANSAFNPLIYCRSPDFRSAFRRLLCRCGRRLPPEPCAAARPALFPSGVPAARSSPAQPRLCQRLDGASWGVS
Compounds were dissolved and serially diluted (5-fold) in DMSO to generate a 10-point dose response stock. The stock was then diluted 100-fold in assay buffer (PBS containing 1 mM IBMX) before a volume of 2.5 μL was added to the cells (the final, top concentration of compound in the dose-response is typically 10 or 100 μM). After a brief incubation, 2.5 μL of isoproterenol stock, prepared at a concentration 4 times its EC90 at the receptor of interest, was added to the wells. The EC90 for isoproterenol, a beta-adrenergic agonist, was determined in separate experiments using standard methods to measure agonist potencies.
Following a 1-hour incubation at room temperature, 5 μL of cAMP-D2 Reagent diluted in Lysis Buffer was added to each well followed by 5 μL of Cryptate Reagent. Plates were further incubated at room temperature for 1 hour prior to reading. Time resolved fluorescence measurements were collected on a suitable, HTRF-capable plate reader.
Counts from the plate reader were fit to the cAMP standard curve on the assay plate in order to determine cAMP concentrations in each well, and these values were used to construct dose-response curves to obtain IC50 values.
On to `CCn1cc(S(=O)(=O)N2CCC3(CC2)C[C@@H](NC[C@H](O)COc2cccc(S(=O)(=O)NC)c2)CO3)c(=O)c2cccc(F)c21` [Compound 525, 3-((S)-3-((R)-8-(1-ethyl-8-fluoro-4-oxo-1,4-dihydroquinolin-3-ylsulfonyl)-1-oxa-8-azaspiro[4.5]decan-3-ylamino)-2-hydroxypropoxy)-N-methylbenzenesulfonamide], for which the 50% inhibitory concentration (IC50) came to 21.6 nM.
Turning to `CNS(=O)(=O)c1cccc(OC[C@@H](O)CNC2COC3(CCN(S(=O)(=O)c4cc5c(nc4Cl)OCCN5C)CC3)C2)c1` (stereo partly drawn) [Compound 400, 3-((2S)-3-(8-(6-chloro-1-methyl-2,3-dihydro-1H-pyrido[2,3-b][1,4]oxazin-7-ylsulfonyl)-1-oxa-8-azaspiro[4.5]decan-3-ylamino)-2-hydroxypropoxy)-N-methylbenzenesulfonamide], the concentration for half-maximal inhibition (IC50) was 33.1 nM.
In the case of `CNS(=O)(=O)c1cccc(OC[C@@H](O)CN[C@H]2COC3(CCN(S(=O)(=O)c4cnc5c(c4)N(C)CCO5)CC3)C2)c1` [Compound 414, 3-((S)-2-hydroxy-3-((R)-8-(1-methyl-2,3-dihydro-1H-pyrido[2,3-b][1,4]oxazin-7-ylsulfonyl)-1-oxa-8-azaspiro[4.5]decan-3-ylamino)propoxy)-N-methylbenzenesulfonamide] it was 16.8 nM; in that of `CNS(=O)(=O)c1cccc(OC[C@@H](O)CNC2COC3(CCN(S(=O)(=O)c4c(F)cccc4F)CC3)C2)c1` (stereo partly drawn) [Compound 156, 3-((2S)-3-(8-(2,6-difluorophenylsulfonyl)-1-oxa-8-azaspiro[4.5]decan-3-ylamino)-2-hydroxypropoxy)-N-methylbenzenesulfonamide], 25.4 nM; in that of `CNS(=O)(=O)c1cccc(OC[C@@H](O)CNC2COC3(CCN(S(=O)(=O)c4cccc(C(F)(F)F)c4)CC3)C2)c1` (stereo partly drawn) [Compound 38, 3-((2S)-2-hydroxy-3-(8-(3-(trifluoromethyl)phenylsulfonyl)-1-oxa-8-azaspiro[4.5]decan-3-ylamino)propoxy)-N-methylbenzenesulfonamide], 18.7 nM.
As for `CNS(=O)(=O)c1cccc(OC[C@@H](O)CNC2COC3(CCN(S(=O)(=O)c4cc(C#N)ccc4C)CC3)C2)c1` (stereo partly drawn) [Compound 217, 3-((2S)-3-(8-(5-cyano-2-methylphenylsulfonyl)-1-oxa-8-azaspiro[4.5]decan-3-ylamino)-2-hydroxypropoxy)-N-methylbenzenesulfonamide], the figure is 35.1 nM.
As for `CNS(=O)(=O)c1cccc(OC[C@@H](O)CN[C@H]2COC3(CCN(c4nccc(N)n4)CC3)C2)c1` [Compound 569, 3-((S)-3-((R)-8-(4-aminopyrimidin-2-yl)-1-oxa-8-azaspiro[4.5]decan-3-ylamino)-2-hydroxypropoxy)-N-methylbenzenesulfonamide], the IC50 came to 427 nM.
As for `C[C@H](CO)NS(=O)(=O)c1cccc(OC[C@@H](O)CN[C@H]2COC3(CCN(S(=O)(=O)c4cnc5c(c4)N(C)CCO5)CC3)C2)c1` [Compound 418, 3-((S)-2-hydroxy-3-((R)-8-(1-methyl-2,3-dihydro-1H-pyrido[2,3-b][1,4]oxazin-7-ylsulfonyl)-1-oxa-8-azaspiro[4.5]decan-3-ylamino)propoxy)-N—((R)-1-hydroxypropan-2-yl)benzenesulfonamide], the IC50 worked out at 172 nM.
As for `Cc1cc(S(=O)(=O)N2CCC3(CC2)CC(NC[C@H](O)COc2cccc(S(=O)(=O)NCCCN(C)C)c2)CO3)ccc1Br` (stereo partly drawn) [Compound 310, 3-((2S)-3-(8-(4-bromo-3-methylphenylsulfonyl)-1-oxa-8-azaspiro[4.5]decan-3-ylamino)-2-hydroxypropoxy)-N-(3-(dimethylamino)propyl)benzenesulfonamide], the IC50 was 877 nM.
As for `CNS(=O)(=O)c1cccc(OC[C@@H](O)CNC2COC3(CCN(S(=O)(=O)c4cc(OC)ccc4C#N)CC3)C2)c1` (stereo partly drawn) [Compound 263, 3-((2S)-3-(8-(2-cyano-5-methoxyphenylsulfonyl)-1-oxa-8-azaspiro[4.5]decan-3-ylamino)-2-hydroxypropoxy)-N-methylbenzenesulfonamide], the figure is 30.8 nM.
In the case of `NS(=O)(=O)c1cccc(OC[C@@H](O)CNC2COC3(CCN(S(=O)(=O)c4ccc5ccccc5c4)CC3)C2)c1` (stereo partly drawn) [Compound 306, 3-((2S)-2-hydroxy-3-(8-(naphthalen-2-ylsulfonyl)-1-oxa-8-azaspiro[4.5]decan-3-ylamino)propoxy)benzenesulfonamide], the half-inhibitory concentration (IC50) amounted to 65.4 nM.
Take `CN(C)CCCNS(=O)(=O)c1cccc(OC[C@@H](O)CNC2COC3(CCN(S(=O)(=O)c4ccc(-c5ccccc5)s4)CC3)C2)c1` (stereo partly drawn) [Compound 315, N-(3-(dimethylamino)propyl)-3-((2S)-2-hydroxy-3-(8-(5-phenylthiophen-2-ylsulfonyl)-1-oxa-8-azaspiro[4.5]decan-3-ylamino)propoxy)benzenesulfonamide]: the IC50 is 1070 nM.
For the compound `CNS(=O)(=O)c1cccc(OC[C@@H](O)CN[C@H]2COC3(CCN(c4ccccn4)CC3)C2)c1` [Compound 561, 3-((S)-2-hydroxy-3-((R)-8-(pyridin-2-yl)-1-oxa-8-azaspiro[4.5]decan-3-ylamino)propoxy)-N-methylbenzenesulfonamide], the IC50 is 429 nM.
With `CNS(=O)(=O)c1cccc(OC[C@@H](O)CNC2COC3(CCN(S(=O)(=O)c4ccc5ccccc5c4)CC3)C2)c1` (stereo partly drawn) [Compound 1, 3-((2S)-2-hydroxy-3-(8-(naphthalen-2-ylsulfonyl)-1-oxa-8-azaspiro[4.5]decan-3-ylamino)propoxy)-N-methylbenzenesulfonamide], the IC50 amounted to 5.4 nM.
In the case of `O=S(=O)(NCC(F)(F)F)c1cccc(OC[C@@H](O)CNC2COC3(CCN(S(=O)(=O)c4ccc5ccccc5c4)CC3)C2)c1` (stereo partly drawn) [Compound 5, 3-((2S)-2-hydroxy-3-(8-(naphthalen-2-ylsulfonyl)-1-oxa-8-azaspiro[4.5]decan-3-ylamino)propoxy)-N-(2,2,2-trifluoroethyl)benzenesulfonamide] it was 220 nM; in that of `CNS(=O)(=O)c1cccc(OC[C@@H](O)CNC2COC3(CCN(S(=O)(=O)c4ccc(OC(C)C)cc4)CC3)C2)c1` (stereo partly drawn) [Compound 137, 3-((2S)-2-hydroxy-3-(8-(4-isopropoxyphenylsulfonyl)-1-oxa-8-azaspiro[4.5]decan-3-ylamino)propoxy)-N-methylbenzenesulfonamide], 23.8 nM; in that of `CNS(=O)(=O)c1cccc(OC[C@@H](O)CNC2COC3(CCN(S(=O)(=O)c4cc(Cl)ccc4F)CC3)C2)c1` (stereo partly drawn) [Compound 144, 3-((2S)-3-(8-(5-chloro-2-fluorophenylsulfonyl)-1-oxa-8-azaspiro[4.5]decan-3-ylamino)-2-hydroxypropoxy)-N-methylbenzenesulfonamide], 12.2 nM.
With `CCOc1ccc(-c2ccc(CN)cc2)cc1S(=O)(=O)N1CCC2(CC1)C[C@H](NC[C@H](O)COc1cccc(S(=O)(=O)NC)c1)CO2` [Compound 419, 3-((S)-3-((S)-8-(4′-(aminomethyl)-4-ethoxybiphenyl-3-ylsulfonyl)-1-oxa-8-azaspiro[4.5]decan-3-ylamino)-2-hydroxypropoxy)-N-methylbenzenesulfonamide], the IC50 is 9.69 nM.
For the compound `Cc1ccc(F)c(S(=O)(=O)N2CCC3(CC2)CC(NC[C@H](O)COc2cccc(S(=O)(=O)N(C)C)c2)CO3)c1` (stereo partly drawn) [Compound 248, 3-((2S)-3-(8-(2-fluoro-5-methylphenylsulfonyl)-1-oxa-8-azaspiro[4.5]decan-3-ylamino)-2-hydroxypropoxy)-N,N-dimethylbenzenesulfonamide], the IC50 is 40.5 nM.
As for `CNS(=O)(=O)c1cccc(OC[C@@H](O)CNC2COC3(CCN(S(=O)(=O)c4ccc(OC)c(OC)c4)CC3)C2)c1` (stereo partly drawn) [Compound 153, 3-((2S)-3-(8-(3,4-dimethoxyphenylsulfonyl)-1-oxa-8-azaspiro[4.5]decan-3-ylamino)-2-hydroxypropoxy)-N-methylbenzenesulfonamide], the figure is 43.6 nM.
In the case of `CNS(=O)(=O)c1cccc(OC[C@@H](O)CN[C@H]2COC3(CCN(S(=O)(=O)c4cn(C)c5ccccc5c4=O)CC3)C2)c1` [Compound 494, 3-((S)-2-hydroxy-3-((R)-8-(1-methyl-4-oxo-1,4-dihydroquinolin-3-ylsulfonyl)-1-oxa-8-azaspiro[4.5]decan-3-ylamino)propoxy)-N-methylbenzenesulfonamide] it was 62.4 nM.
Turning to `CC(C)NS(=O)(=O)c1cccc(OC[C@@H](O)CNC2COC3(CCN(S(=O)(=O)c4ccc5ccccc5c4)CC3)C2)c1` (stereo partly drawn) [Compound 6, 3-((2S)-2-hydroxy-3-(8-(naphthalen-2-ylsulfonyl)-1-oxa-8-azaspiro[4.5]decan-3-ylamino)propoxy)-N-isopropylbenzenesulfonamide], the IC50 is 24.3 nM.
In the case of `CNS(=O)(=O)c1cccc(OC[C@@H](O)CNC2COC3(CCN(S(=O)(=O)c4cccc(C)c4)CC3)C2)c1` (stereo partly drawn) [Compound 21, 3-((2S)-2-hydroxy-3-(8-(m-tolylsulfonyl)-1-oxa-8-azaspiro[4.5]decan-3-ylamino)propoxy)-N-methylbenzenesulfonamide] it was 13.4 nM; in that of `CNS(=O)(=O)c1cccc(OC[C@@H](O)CNC2COC3(CCN(S(=O)(=O)c4cc(Cl)c(Cl)s4)CC3)C2)c1` (stereo partly drawn) [Compound 178, 3-((2S)-3-(8-(4,5-dichlorothiophen-2-ylsulfonyl)-1-oxa-8-azaspiro[4.5]decan-3-ylamino)-2-hydroxypropoxy)-N-methylbenzenesulfonamide], 20.8 nM.
